One data set addresses T1, BCRP (Homo sapiens, UniProt Q9UNQ0).
T1 construct: host or cells: MDCKII-BCRP (canine MDR1 knockout, transfected with BCRP)
T1 sequence (Q9UNQ0 1-655): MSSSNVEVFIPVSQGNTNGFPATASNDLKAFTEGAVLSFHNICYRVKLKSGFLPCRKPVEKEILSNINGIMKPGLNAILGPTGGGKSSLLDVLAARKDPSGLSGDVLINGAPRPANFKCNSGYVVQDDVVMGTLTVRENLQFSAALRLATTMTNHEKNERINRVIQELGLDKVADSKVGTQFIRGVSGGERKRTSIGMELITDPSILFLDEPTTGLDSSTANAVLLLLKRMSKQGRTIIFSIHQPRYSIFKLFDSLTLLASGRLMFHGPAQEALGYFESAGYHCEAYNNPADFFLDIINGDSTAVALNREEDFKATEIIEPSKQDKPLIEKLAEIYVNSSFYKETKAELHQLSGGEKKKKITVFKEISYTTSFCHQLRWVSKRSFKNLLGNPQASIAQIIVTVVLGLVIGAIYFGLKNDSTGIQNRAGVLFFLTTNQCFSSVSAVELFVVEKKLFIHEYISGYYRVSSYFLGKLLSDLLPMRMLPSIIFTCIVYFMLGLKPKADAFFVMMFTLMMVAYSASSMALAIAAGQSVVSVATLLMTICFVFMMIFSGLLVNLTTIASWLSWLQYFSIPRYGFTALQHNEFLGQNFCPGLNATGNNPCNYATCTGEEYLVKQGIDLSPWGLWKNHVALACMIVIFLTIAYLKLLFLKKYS
Briefly: MDCKII-BCRP bidirectional permeability / efflux assay. Type of data set: in vitro ADME. Conditions: for substrate for the BCRP transporter: based on efflux ratio (> 2.0 = substrate); for Papp A→B at 120 min / Papp B→A at 120 min / efflux ratio at 120 min: dog, MDCKII-BCRP, absence of Ko143. Here is the method: For each experiment, the apparent permeability (Papp) for each direction and the efflux ratio (ER) were determined by the equations: Papp(cm/s)=(dQ/dt)/A×Co
Where P(B→A) is the apparent permeability of the compounds from the basal to the apical direction and P(A→B) is the apparent permeability from the apical to basal direction. […] The results are presented as an average of two independent experiments.

A short description of data set [1]: Parallel artificial membrane permeability assay - blood brain barrier (PAMPA-BBB). Conditions: for Log Pe: PAMPA-BBB, High permeability LogPe > −5.33, No permeability LogPe < −6.14; for Papp at 18 h, 250 μM: pig, PAMPA, pH 7.5.
Experimental: A solution of 1 × PBS (pH 7.5) was initially prepared by the dilution of a commercially available 10 × PBS solution. […] A solution of porcine brain lipid (PBL) (20 mg/mL in dodecane) was prepared, and 4 μL of this solution was used to coat the filters on the bottom of the PAMPA donor plates (Sigma Aldrich #MAIPNTR10). After air drying for 20 min, the donor plate wells were charged with 250 μL of the solutions of the test compounds or the controls. The donor plate was then placed over the acceptor plate (Sigma Aldrich #MATRNPS50), in which wells were previously filled with 1 × PBS (2 % DMSO v/v) solution. The PAMPA sandwich was closed with parafilm and incubated at 25 °C for 18 h in a humidity-saturated atmosphere with orbital agitation. […] The UV spectra (250–400 nm) of each well were acquired on a BioTek Synergy H1 MD plate reader equipped with a monochromator at room temperature.
CA(t) is the concentration of the compounds at the final time of incubation on the acceptor well; CD(0) and CD(t) are the concentration of the compounds at the initial time of incubation and at the final time of incubation on the donor well, respectively.
Data set [2] concerns MG132-induced mutant SOD1 intracellular aggregation in PC12-SOD1^G85R YFP cells. Briefly: Protection against MG132-induced mut-SOD1 intracellular aggregation (fluorescence microscopy). Type of data set: cell-based. The note with it: PC12-SOD1^G85R YFP cells, 0.7 μM MG132, 72 h; Inactive = no decrease of aggregates at 10 μM vs vehicle. How it is done:
The PC12 Tet-Off-SOD1^G85R YFP cells were cultured in DMEM media supplemented with 10 % horse serum, 5 % Tet-approved FBS, 1 % Penstrep, 1× L-glutamine, 200 μg/mL hygromycin, 100 μg/mL G418, with 1 μg/mL Doxycycline and were incubated at 37 °C in humidified air with […] until 90–95 % confluency. To induce the expression of SOD1^G85R YFP, the Doxycycline was removed at least 4 days before the experiment. To remove the Doxycycline, the media was removed, and the cells were washed 3 times with 1xPBS. The cells were then cultured in standard culture media without Doxycycline. To set up the assay, the cells were then seeded into 96-well cell culture plates (Greiner Bio-One Catalog #655090) at a concentration of 50,000 cells/well with a final volume of 100 μL/well and incubated in the CO2 incubator at 37 °C for 24 h. The media were removed from the cells and replaced with 100 μL of media containing 0.1 % DMSO or compounds, and incubated in the CO2 incubator at 37 °C for 6 h. The media were then replaced with fresh 100 μL of media containing the diluted compounds with 0.7 μM (−)-MG-132, and the plates were incubated for 72 h under culture conditions. After 72 h, the cells were stained with Hoescht 33,342 (55 μg/mL, 10 μL/well) and imaged (lex = 358, 513 nm) using a Molecular Devices ImageXpress Micro Confocal High-Content Imaging System equipped with a 40× objective. […] Image binning was set to 2. DAPI fluorescence was captured using an exposure time of 300 ms, and FITC fluorescence was captured using an exposure time of 400 ms. A 13-plane z-series was acquired for each field of view with a step size of 3 μm. For each condition, 2 sets of 9 images were generated in a 3 × 3 grid to separately image the SOD1^G85R YFP proteins and the nuclei stained with Hoescht 33,342. Image analysis was performed with MetaXpress software (Molecular Devices) using the Transfluor module. Parameters for puncta detection (aggregates) were set with a minimum pit width of 2 μm and a maximum pit width of 5 μm. Signal intensity thresholds were defined as 700 grayscale units above the local background. The analysis provided the average area of each cell that is covered by puncta (pit/cell), which are indicated by bright green spots on the SOD1^G85RYFP image set.
The assay was performed in triplicate for each condition tested, and wells containing the media with vehicle (0.1 % DMSO) or (−)-MG-132 alone were used as controls representing the minimum and maximum aggregate formation. […] The data for EC50 determination was treated with Prism and fitted using a semi-logarithmic curve for determination of the EC50 values of NU9 and compounds 4, 6, 20 and 21.

Consider `O=C1CC(=O)CC(/C=C/c2cc(C(F)(F)F)cc(C(F)(F)F)c2)C1` [Compound 6, (E)-5-(3,5-Bis(trifluoromethyl)styryl)cyclohexane-1,3-dione], for which, at BCRP, the “substrate for the BCRP transporter” value is “substrates”, the Papp A→B at 120 min was 0.66 ± 0.18 ×10⁻⁶ cm/s, the Papp B→A at 120 min turned out to be 31.5 ± 2.73 ×10⁻⁶ cm/s and the efflux ratio at 120 min is 47.4. For the same compound, in data set [1], the “Log Pe” value is −5.07 and the apparent permeability coefficient (Papp) at 18 h, 250 μM amounted to 8.46 ± 0.1 ×10⁻⁶ cm/s. The compound also had a half-maximal effective concentration (EC50) in data set [2] of 2060 ± 240 nM.
Take `CC(C)(Oc1cc(C(F)(F)F)cc(C(F)(F)F)c1)C1CC(=O)CC(=O)C1` [Compound 20, 5-(2-(3,5-bis(trifluoromethyl)phenoxy)propan-2-yl)cyclohexane-1,3-dione]: on BCRP, the “substrate for the BCRP transporter” value is on record as “substrates”, the apparent permeability from apical to basolateral (Papp A→B) at 120 min was 3.62 ± 0.22 ×10⁻⁶ cm/s, the basolateral-to-apical permeability (Papp B→A) at 120 min is 19.2 ± 0.88 ×10⁻⁶ cm/s and the efflux ratio at 120 min was 5.32. For the same compound, in data set [1], the “Log Pe” value is given as −4.94 and the apparent permeability coefficient (Papp) at 18 h, 250 μM is 11.5 ± 0.66 ×10⁻⁶ cm/s. Also, the EC50 in data set [2] was determined as 2630 ± 270 nM.

Values taken from publication PMC12648443, “Modifications of NU-9, a potent protein aggregation inhibitor. Properties and activity in a cellular model of amyotrophic lateral sclerosis” (Bioorganic chemistry, 2025).
